{
  "source": "patent US20230286999A1",
  "about": "“ORGANIC COMPOUND, LIGHT-RECEIVING DEVICE, LIGHT-EMITTING AND LIGHT-RECEIVING APPARATUS, AND ELECTRONIC DEVICE” (Semiconductor Energy Laboratory Co., Ltd., priority 2022, published 2023)",
  "key": {"[1]": {"assay": "Solubility evaluation using a liquid chromatography mass spectrometer", "format": "physicochemical", "conditions": "for Ratio of chromatogram peak areas (Peak area of material/Peak area of solvent × 100), considered as the solubility: 0.5 mg material in 0.25 mL chloroform + 2.5 mL acetonitrile, filtrate after 18 hours, DPAPhA: 1 mg in 1 mL toluene, 5-fold dilution with acetonitrile, 100% = completely dissolved; for solubility compared with FT2TDMN (in words): chloroform/acetonitrile sample", "method": "In Example 3, the solubilities of materials that can be used for a photoelectric conversion device of one embodiment of the present invention are described. The solubilities of the materials were measured using a liquid chromatography mass spectrometer.\nIn Example 3, the solubilities of the organic compound (abbreviation: EtHex-FT2TDMN) represented by Structural Formula (100) in Embodiment 1 and the organic compound (abbreviation: EtHex-BisDCVTTt) represented by Structural Formula (200) in Embodiment 1 were evaluated. As a comparative example, FT2TDMN, which is a material having no branched alkyl, was evaluated. Furthermore, DPAPhA, which is a material with high solubility, was also evaluated as a reference sample.\nThe solubilities were measured using a liquid chromatography mass spectrometer. Specifically, chromatogram peak areas of the solvent and the material in the sample were obtained, the proportion of the peak area of the material to the peak area of the solvent was calculated, and the calculated value was considered as the solubility.\nNote that the solubility of the case where the sample is completely dissolved is 100%. In Example 3, DPAPhA is a reference sample that is completely dissolved. In the case where a chromatogram peak is not detected and an MS spectrum is detected from a sample, the mass of the sample is regarded as being lower than the detection limit and the solubility is 0%.\nThe liquid chromatography mass spectrometer is constructed of ACQUITY H-Class (produced by Waters Corporation) and Xevo™ G2 Q-TOF MS (produced by Waters Corporation), and ACQUITY UPLC (registered trademark) BEH C8 Column ([…], 2.1×100 mm) (produced by Waters Corporation, hereinafter referred to as Column) was used as a column.\nSamples of EtHex-FT2TDMN, EtHex-BisDCVTTt, and FT2TDMN used for solubility evaluation were formed. Specifically, in a reagent bottle made of glass were put 0.5 mg of the material and 0.25 mL of chloroform, and ultrasonic treatment was performed for 1 minute. To the obtained mixture, 2.5 mL of acetonitrile was added, and the resulting mixture was left still. After 18 hours, the resulting mixture was filtrated. With the use of the obtained filtrate as a sample, a solubility test for evaluating the solubility was performed using the liquid chromatography mass spectrometer.\nNext, the DPAPhA sample used for solubility evaluation was formed. In a reagent bottle made of glass were put 1 mg of the material and 1 mL of toluene, and ultrasonic treatment was performed for 1 minute. Acetonitrile was added to the obtained solution to make a 5-fold dilution. The dilute solution was used as the sample and took the solubility test with the liquid chromatography mass spectrometer.\nA measurement method for the solubility test for evaluating the solubility using the liquid chromatography mass spectrometer is described. As a mobile phase A and a mobile phase B, acetonitrile and a formic acid aqueous solution (0.1%) were used, respectively; the velocity of flow of a solvent was 0.5 mL/min; and the sample injection amount was 5 μL.\n(§1) For 1 minute from the beginning of the measurement, the ratio of a mobile phase A to a mobile phase B was set to be 75:25. From 1 minute to 9 minutes, measurement was performed with a linear gradient to the ratio of 95:5. After a lapse of 10 minutes, measurement was performed for 5 minutes with the ratio of 95:5 held.\nas §1, with “85:15.” for “75:25.”\nFor 1 minute from the beginning of the measurement, the ratio of a mobile phase A to a mobile phase B was set to be 40:60. From 1 minute to 9 minutes, measurement was performed with a linear gradient to the ratio of 95:5. […]"}, "[2]": {"assay": "Thermogravimetry-differential thermal analysis (TG-DTA)", "format": "physicochemical", "conditions": "10° C./min", "method": "(§2) The thermogravimetry-differential thermal analysis (TG-DTA) of EtHex-FT2TDMN was performed. The measurement was conducted using a high vacuum differential type differential thermal balance (TG-DTA 2410SA, manufactured by Bruker AXS K.K.). The measurement was performed under two conditions. The first measurement was performed at atmospheric pressure at a temperature rising rate of 10° C./min under a nitrogen stream (flow rate: 200 mL/min). The second measurement was performed at 10 Pa at a temperature rising rate of 10° C./min under a nitrogen stream (flow rate: 2 mL/min).\nas §2, with “(TG-DTA) of EtHex-BisDCVTTt was performed.” for “(TG-DTA) of EtHex-FT2TDMN was performed.”, “was performed under atmospheric pressure” for “was performed at atmospheric pressure”"}, "[3]": {"conditions": "10 Pa, nitrogen stream 2 mL/min"}, "[4]": {"conditions": "atmospheric pressure, nitrogen stream 200 mL/min"}},
  "data": [
    {"compound": "c1ccc(-c2c3ccccc3c(N(c3ccccc3)c3ccc(N(c4ccccc4)c4ccccc4)cc3)c3ccccc23)cc1", "note": "[DPAPhA, reference compound]", "values": [
      {"measurement": "Ratio of chromatogram peak areas (Peak area of material/Peak area of solvent × 100), considered as the solubility", "setting": "[1]", "value": 100, "unit": "%"}
    ]},
    {"compound": "N#CC(C#N)=Cc1ccc(-c2cc3sc(-c4ccc(C=C(C#N)C#N)s4)cc3s2)s1", "note": "[FT2TDMN, reference compound]", "values": [
      {"measurement": "Ratio of chromatogram peak areas (Peak area of material/Peak area of solvent × 100), considered as the solubility", "setting": "[1]", "value": 0, "unit": "%"},
      {"measurement": "chromatogram peak detection in solubility measurement (in words)", "setting": "[1]; only an MS spectrum was detected, regarded as below detection limit, solubility 0%", "value": "no chromatogram peak was detected"}
    ]},
    {"compound": "CCCCC(CC)Cc1cc(-c2cc3sc(-c4cc5sc(-c6cc(CC(CC)CCCC)c(C=C(C#N)C#N)s6)cc5s4)cc3s2)sc1C=C(C#N)C#N", "note": "(centres unmarked) [EtHex-BisDCVTTt]", "values": [
      {"measurement": "temperature (decomposition temperature) at which the weight obtained by thermogravimetry was reduced by 5%", "setting": "[2]; [3]", "value": 295, "unit": "°C"},
      {"measurement": "temperature (decomposition temperature) at which the weight obtained by thermogravimetry was reduced by 5%", "setting": "[2]; [4]", "value": 362, "unit": "°C"},
      {"measurement": "Ratio of chromatogram peak areas (Peak area of material/Peak area of solvent × 100), considered as the solubility", "setting": "[1]", "value": 3.5, "unit": "%"},
      {"measurement": "solubility compared with FT2TDMN (in words)", "setting": "[1]", "value": "favorable solubilities"}
    ]},
    {"compound": "CCCCC(CC)Cc1cc(-c2cc3sc(-c4cc(CC(CC)CCCC)c(C=C(C#N)C#N)s4)cc3s2)sc1C=C(C#N)C#N", "note": "(centres unmarked) [EtHex-FT2TDMN, 2,2′-[5,5′-(thieno[3,2-b]thiophene-2,5-diyl)bis(3-(2-ethylhexyl)thiophene-5,2-diyl)]bis(methan-1-yl-1-ylidene)dimalononitrile]", "values": [
      {"measurement": "temperature (decomposition temperature) at which the weight obtained by thermogravimetry was reduced by 5%", "setting": "[2]; [3]", "value": 244, "unit": "°C"},
      {"measurement": "temperature (decomposition temperature) at which the weight obtained by thermogravimetry was reduced by 5%", "setting": "[2]; [4]", "value": 325, "unit": "°C"},
      {"measurement": "Ratio of chromatogram peak areas (Peak area of material/Peak area of solvent × 100), considered as the solubility", "setting": "[1]", "value": 18, "unit": "%"},
      {"measurement": "solubility compared with FT2TDMN (in words)", "setting": "[1]", "value": "favorable solubilities"}
    ]}
  ]
}
